Data taken from the supplement of paper PMC11451515.

Columns and labels:
Conditions in all cases: 48 h
SEM cells [1] = test: AUC of viability dose-response curve (% viability x log10 dose units); higher = less sensitive
In short: (§1)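 Leukemia cells adapted to each medium were seeded in 1536-well plates (500 or 1000 cells/well) and given library compounds in DMSO for 48 h at 37°C. The 11 threefold doses spanned 47 μM to 0.79 nM, and CellTiter-Glo One luminescence was normalised per plate to DMSO and cell-free wells before four-parameter log-logistic fitting on log10 dose. Area under the curve was integrated with the trapezoidal rule, scaling curves above full viability and removing curves that failed quality control.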

P12-Ichikawa [2] = test: as above
In short: as §1

NOMO1 [3] = test: as above
In short: as §1

SEM cells [4] = test: cell viability relative to DMSO control; higher = less cytotoxic
In short: (§2)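 Viability is expressed as a percentage of DMSO wells within each plate, and cell-free wells serve as background. Seeding densities in the 1536-well plates (5 μl) were 500 cells/well for NOMO1 or SEM leukemia cells and 1000 cells/well for P12-Ichikawa. Each line was adapted for at least four passages in each medium. Library compounds in DMSO were pin-dosed at 47 μM to 0.79 nM (11 points, threefold), and CellTiter-Glo One luminescence was read after 48 h at 37°C.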

P12-Ichikawa [5] = test: as above
In short: as §2

NOMO1 [6] = test: as above
In short: as §2

C[C@@H]1O[C@@H](O[C@H]\2CC[C@]\3(C)[C@@H]4CC[C@]5(C)[C@@H](CC[C@@]5(O)[C@H]4CCC3=C2)C/6=C/OC(=O)/C=C6)[C@H](O)[C@H](O)[C@@H]1O
AUC of viability dose-response curve
Conditions	NOMO1 [3]	P12-Ichikawa [2]	SEM cells [1]
HPLM + 10% dialyzed FBS	187	181	173
RPMI 5 mM glucose + 10% FBS	214	197	193
RPMI 5 mM glucose + 10% dialyzed FBS	193	173	186

SEM cells [4], HPLM + 10% dialyzed FBS
Conditions	cell viability [%]
0.000781 µM	124
0.00234 µM	121
0.00702 µM	109
0.0211 µM	79.3
0.0632 µM	11.6
0.19 µM	12.5
0.569 µM	9.21
1.71 µM	8.61
5.12 µM	8.87
15.4 µM	7.79
46.1 µM	4.4

CN(C)C(=O)COC(=O)Cc1ccc(OC(=O)c2ccc(NC(=N)N)cc2)cc1
AUC of viability dose-response curve
Conditions	NOMO1 [3]	P12-Ichikawa [2]	SEM cells [1]
HPLM + 10% dialyzed FBS	426	446	465
RPMI 5 mM glucose + 10% FBS	469	462	458
RPMI 5 mM glucose + 10% dialyzed FBS	465	437	469

cell viability [%]
Conditions	HPLM + 10% dialyzed FBS	RPMI 5 mM glucose + 10% FBS
P12-Ichikawa [5], 0.00234 µM	122	–
P12-Ichikawa [5], 0.00702 µM	126	–
P12-Ichikawa [5], 0.0211 µM	134	–
P12-Ichikawa [5], 0.0632 µM	129	–
P12-Ichikawa [5], 0.19 µM	135	–
P12-Ichikawa [5], 0.569 µM	134	–
P12-Ichikawa [5], 1.71 µM	126	–
P12-Ichikawa [5], 5.12 µM	107	–
P12-Ichikawa [5], 15.4 µM	98.4	–
P12-Ichikawa [5], 46.1 µM	70.5	–
SEM cells [4], 0.000781 µM	107	102
SEM cells [4], 0.00234 µM	113	110
SEM cells [4], 0.00702 µM	122	126
SEM cells [4], 0.0211 µM	112	117
SEM cells [4], 0.0632 µM	125	130
SEM cells [4], 0.19 µM	126	126
SEM cells [4], 0.569 µM	119	139
SEM cells [4], 1.71 µM	119	130
SEM cells [4], 5.12 µM	112	114
SEM cells [4], 15.4 µM	118	107
SEM cells [4], 46.1 µM	61.2	61.7

Cn1c(CCCC(=O)O)nc2cc(N(CCCl)CCCl)ccc21
AUC of viability dose-response curve
Conditions	NOMO1 [3]	P12-Ichikawa [2]	SEM cells [1]
HPLM + 10% dialyzed FBS	452	438	456
RPMI 5 mM glucose + 10% FBS	441	457	414
RPMI 5 mM glucose + 10% dialyzed FBS	453	451	447

CN1CCN(c2cccc(Nc3nc4c(-c5ccc([S+](C)(=O)[O-])cc5)cccn4n3)c2)CC1
AUC of viability dose-response curve
Conditions	NOMO1 [3]	P12-Ichikawa [2]	SEM cells [1]
HPLM + 10% dialyzed FBS	438	453	379
RPMI 5 mM glucose + 10% FBS	449	427	375
RPMI 5 mM glucose + 10% dialyzed FBS	450	435	372

COC(=O)C/1=C/O[C@@H](O)[C@H]\2[C@@H]1C\C=C2CO
AUC of viability dose-response curve
Conditions	NOMO1 [3]	P12-Ichikawa [2]	SEM cells [1]
HPLM + 10% dialyzed FBS	472	469	465
RPMI 5 mM glucose + 10% FBS	461	466	462
RPMI 5 mM glucose + 10% dialyzed FBS	467	466	454

SEM cells [4], HPLM + 10% dialyzed FBS
Conditions	cell viability [%]
0.000781 µM	98.6
0.00234 µM	116
0.00702 µM	101
0.0211 µM	114
0.0632 µM	138
0.19 µM	114
0.569 µM	126
1.71 µM	112
5.12 µM	112
15.4 µM	104
46.1 µM	76.9

CCC(C)N(C)C(=O)c1cc2ccccc2c(-c2ccccc2Cl)n1 (stereo unspecified)
AUC of viability dose-response curve
Conditions	NOMO1 [3]	P12-Ichikawa [2]	SEM cells [1]
HPLM + 10% dialyzed FBS	452	462	461
RPMI 5 mM glucose + 10% FBS	473	471	460
RPMI 5 mM glucose + 10% dialyzed FBS	453	463	464

CC1(C)S[C@H]2[C@H](NC(=O)[C@@H](N)C3=CC=C(O)C=C3)C(=O)[N@]2[C@H]1C(O)=O
AUC of viability dose-response curve
Conditions	NOMO1 [3]	P12-Ichikawa [2]	SEM cells [1]
HPLM + 10% dialyzed FBS	383	394	456
RPMI 5 mM glucose + 10% FBS	394	394	441
RPMI 5 mM glucose + 10% dialyzed FBS	393	383	461

NC/1=N/C(=O)N(/C=C1)[C@H]2CC[C@@H](CO)O2
AUC of viability dose-response curve
Conditions	HPLM + 10% dialyzed FBS	RPMI 5 mM glucose + 10% FBS	RPMI 5 mM glucose + 10% dialyzed FBS
NOMO1 [3]	435	404	422
SEM cells [1]	437	415	385

cell viability [%]
Conditions	NOMO1 [6]	P12-Ichikawa [5]	SEM cells [4]
HPLM + 10% dialyzed FBS, 0.000781 µM	76	85	78.3
HPLM + 10% dialyzed FBS, 0.00234 µM	106	95.4	95
HPLM + 10% dialyzed FBS, 0.00702 µM	107	93.5	93.8
HPLM + 10% dialyzed FBS, 0.0211 µM	103	101	103
HPLM + 10% dialyzed FBS, 0.0632 µM	97.5	95.9	101
HPLM + 10% dialyzed FBS, 0.19 µM	101	102	104
HPLM + 10% dialyzed FBS, 0.569 µM	107	96.1	109
HPLM + 10% dialyzed FBS, 1.71 µM	92.1	106	121
HPLM + 10% dialyzed FBS, 5.12 µM	82.8	95.5	103
HPLM + 10% dialyzed FBS, 15.4 µM	82.2	104	23
HPLM + 10% dialyzed FBS, 46.1 µM	14.2	37.6	72.2
RPMI 5 mM glucose + 10% FBS, 0.000781 µM	75.6	88.3	71.7
RPMI 5 mM glucose + 10% FBS, 0.00234 µM	91.3	87.6	88.8
RPMI 5 mM glucose + 10% FBS, 0.00702 µM	85.7	88.6	103
RPMI 5 mM glucose + 10% FBS, 0.0211 µM	96.4	94	92
RPMI 5 mM glucose + 10% FBS, 0.0632 µM	87.1	102	88.3
RPMI 5 mM glucose + 10% FBS, 0.19 µM	92.3	91.1	101
RPMI 5 mM glucose + 10% FBS, 0.569 µM	85.7	99.6	93.4
RPMI 5 mM glucose + 10% FBS, 1.71 µM	89.2	92.2	96.1
RPMI 5 mM glucose + 10% FBS, 5.12 µM	91	94.3	110
RPMI 5 mM glucose + 10% FBS, 15.4 µM	93.1	90.9	17
RPMI 5 mM glucose + 10% FBS, 46.1 µM	8.01	41.8	80.1
RPMI 5 mM glucose + 10% dialyzed FBS, 0.000781 µM	70.8	59.6	68.7
RPMI 5 mM glucose + 10% dialyzed FBS, 0.00234 µM	94.6	87.9	87.4
RPMI 5 mM glucose + 10% dialyzed FBS, 0.00702 µM	92.2	88.1	94.3
RPMI 5 mM glucose + 10% dialyzed FBS, 0.0211 µM	98.5	90.3	94.3
RPMI 5 mM glucose + 10% dialyzed FBS, 0.0632 µM	101	85.1	102
RPMI 5 mM glucose + 10% dialyzed FBS, 0.19 µM	105	90.4	88.1
RPMI 5 mM glucose + 10% dialyzed FBS, 0.569 µM	108	96.6	88.6
RPMI 5 mM glucose + 10% dialyzed FBS, 1.71 µM	95.9	93.9	98.4
RPMI 5 mM glucose + 10% dialyzed FBS, 5.12 µM	74	98.2	78
RPMI 5 mM glucose + 10% dialyzed FBS, 15.4 µM	88.7	90.9	17.2
RPMI 5 mM glucose + 10% dialyzed FBS, 46.1 µM	6.05	30	53.4

C/C=C(/C(=C/C)c1ccc(O)cc1)c1ccc(O)cc1
AUC of viability dose-response curve
Conditions	NOMO1 [3]	P12-Ichikawa [2]	SEM cells [1]
HPLM + 10% dialyzed FBS	464	469	464
RPMI 5 mM glucose + 10% FBS	431	465	467
RPMI 5 mM glucose + 10% dialyzed FBS	457	465	465
